These results are taken from BindingDB's records for doi:10.1021/jm00170a025 (Royal Danish School of Pharmacy, 1990).

What is called EC50 is the concentration at which the effect is half-maximal. A lower EC50 goes with an effect from little substance.

The nature of this assay: Effective concentration required to stimulate Adenylate cyclase.

On to `Cc1ccc([C@H]2CNCCc3cc(O)c(O)cc32)cc1`, for which the EC50 was determined as 210 nM. This counts as sub-micromolar.
